The structures appear in SMILES notation. “Also recorded” adds a separate entry of the source. Read-outs that look alike come from different tables or passages of the source. A value given as a limit tells only on which side of the number the result lay.

One data set has as its system MAT LyLu cells. Kind of data set: Gamma camera scintigraphy in rat Dunning R3327 (MAT LyLu) prostate cancer model. The settings on record: tumor-bearing rats, 24 and 48 hours post injection.
The next data set has as its target T1, Phospholipase C (PLC) (Bacillus cereus, UniProt P09598).
T1 construct: PLC isolated from Bacillus cereus; host or cells: Bacillus cereus (natural source)
Kind of data set: PLC substrate assay. It is filed as biochemical. The protocol: Formal metabolism studies were conducted on several PLE analogs including NM324, the predecessor of NM404. In these studies, each agent was examined to determine their ability to serve as substrates for enzymes associated with PLE metabolism. Three major enzymatic pathways are involved in the metabolism of PLE. O-Alkyl glycerol monooxygenase (AGMO) is responsible for cleavage of the alkyl ether linkage at C-1 to form either the long chain fatty alcohol or subsequently, the corresponding fatty acid. Phospholipases C (PLC) and D (PLD), on the other hand, give rise to the glycerol or phosphatidic acid products, respectively.

In a further data set the test system is serum proteins. The settings on record: cited from earlier work.
The conditions of data set [1]: mouse; cited from earlier work.
The conditions of data set [2]: cited from earlier work.
Data set [3] concerns carrageenan-induced granulomas. Kind of data set: Uptake in carrageenan-induced granulomas. Set-up: species or system rats. The settings on record: rat, in vivo. From the text:
This lack of specificity is a significant clinical issue in patients with cancer.

The conditions of data set [4]: rats, cited from earlier work.
Data set [5] has as its system several animal tumor models. Kind of data set: Animal tumor localization studies with first generation PLE analogs. Type of data set: in vivo. The settings on record: iodine-125 labeled; Walker 256, Lewis mammary, Dunning R3327, Vx2, human xenografts. From the text:
Phospholipid ethers can easily be labeled with iodine radioisotopes using radiolabeling methods developed in the labs. The iodophenyl phospholipid ether analogs are specifically designed so that the radioiodine affixed to each molecule is stable to facile in vivo deiodination. […] The inventors have now synthesized over 20 radiolabeled PLE compounds and tested in vitro and in vivo. […] Optimal tumor localization of these agents takes from one to several days due to the more rapid clearance of the radioactivity from normal tissues relative to tumor.

The nature of data set [6]: MIRD extrapolation of rat tissue distribution data to permissible human dose. Set-up: species or system human (from rat data). The text has this: Accordingly the inventors have conducted the preliminary pharmacokinetic studies in human lung cancer patients at 1 mCi. Similar extrapolative calculation of the dosimetry for ^124I-NM404 afforded a similar 2 mCi dose level again based on projected dosimetry to the adrenals and bladder wall. Preliminary human data (5 patients), however, indicate very little uptake and retention of the agent into any abdominal organ (including the bladder and adrenals) with the exception of the liver which returns to background levels within 11 days.
Dosing of radioiodinated ^124I NM404 will be based on MIRD extrapolation of the iodine-131 dosimetry data derived from this ongoing study. The ^131I-NM404 dose is currently calculated as follows: Animal biodistribution data is used to determine the percentage of injected dose/organ at varying time points. These animal data are extrapolated to man by means of MIRD formalism (MIRDOSE PC v3.1) using standard conversion factors for differences in organ mass and anatomy between rat and standard man, providing predicted human organ doses; Based on these predicted doses, the permissible mCi dose to be injected into humans is determined using the maximal doses legally permitted by RDRC regulations for specific human tissue as defined in the Federal Register (21CFR Part 361.1) e.g. whole body, blood, blood forming tissues, eye lens, gonads—3 rem/dose; any other tissue—5 rem/dose. This approach was previously used to bring both NM324 and NM404 to clinical use, resulting in a calculated dose of 1 mCi.

A short description of data set [7]: Blood plasma kinetics in rats. Type of data set: in vivo. The settings on record: rat, read-out: elimination half life time in plasma (converted).
The subject of another data set is rat mammary tumor. Kind of data set: Biodistribution in rat mammary tumor model. Type of data set: in vivo. The protocol: In one such example in a rat mammary tumor model, tumor-to-normal tissue ratios reached a maximum at 96 hours with a tumor-to-blood ratio of 8.6 and tumor-to-muscle ratio of 20:1.
Extensive biodistribution data for the prototype agent ^125I-NM324 in several tumor models has previously been reported. […] For example, in a rat mammary tumor model, tumor-to-normal tissue ratios reached a maximum at 96 hours with a tumor-to-blood ratio of 8.6 and tumor-to-muscle ratio of 20:1. […] Comparative biodistribution data for NM324 and NM404 in SCID mice have been obtained in prostate and A549 lung cancer tumor models.

Another data set relates to lung cancer. Kind of data set: Initial clinical studies of NM-324 in lung cancer patients. It is filed as in vivo, human. To be noted: for liver radioactivity in patients: human, in vivo; for tumor uptake in cancer patients: scintigraphy.
In data set [8] the test system is Walker-256 carcinosarcoma. Kind of data set: Tissue distribution of radioactivity in rats bearing Walker-256 carcinosarcoma. It is filed as in vivo, rat.
In a further data set the test system is CNS-1 glioma brain tumor. Kind of data set: microPET imaging in rat CNS-1 brain tumor model. It is filed as in vivo. To be noted: 24 h after iv injection. Here is the method: The inventors recently successfully radiolabeled NM404 twice with iodine-124 from a commercial vendor (Eastern Isotopes). The radiochemical yield (>60% mean isolated yield, >99% purity) was very similar to what we usually obtain with commercial sources of iodine-125 or 131 sodium iodide. The PET imaging characteristics of ^124I-NM404 in a rat CNS-1 brain tumor model (FIG. 24) was investigated. Imaging times in this preliminary study were limited to 24 h and 4 days post injection due to microPET scanner availability. […] These compounds may then be used for extending NM404 PET utility into human cancer patients.

The test system of data set [9] is A549 lung, PC-3 prostate, c-myc pancreatic tumors. Kind of data set: microPET imaging in lung, prostate and pancreatic mouse tumor models. It is filed as in vivo. The settings on record: any time point. The text has this:
Human pharmacokinetic studies have confirmed this finding as only 4% of the agent is cleared renally within 4 days of iv injection (majority is excreted via GI route).

The format of data set [10] is in vivo, human.
Data set [11] deals with non-small cell lung cancer. The settings on record: human, in vivo.
Experimental: (§1) The preparation dispensed by the Nuclear Pharmacy will be certified as sterile and pyrogen-free. The subject will be monitored for adverse reactions during and after the infusion. Vital signs will be checked immediately after the infusion, and at 60 minute intervals up to four hours post-injection. They will be observed for adverse events throughout this time. […] Vital signs will be monitored at these times. Any adverse reactions experienced by the subjects will be recorded.
In data set [12] the test system is non-small cell lung cancer. Kind of data set: Planar gamma-camera scintigraphy with 131I-NM-404 in NSCLC patients. To be noted: <1 mCi, n=3.
Experimental: as §1

T1 sequence (P09598 39-283 limits assumed): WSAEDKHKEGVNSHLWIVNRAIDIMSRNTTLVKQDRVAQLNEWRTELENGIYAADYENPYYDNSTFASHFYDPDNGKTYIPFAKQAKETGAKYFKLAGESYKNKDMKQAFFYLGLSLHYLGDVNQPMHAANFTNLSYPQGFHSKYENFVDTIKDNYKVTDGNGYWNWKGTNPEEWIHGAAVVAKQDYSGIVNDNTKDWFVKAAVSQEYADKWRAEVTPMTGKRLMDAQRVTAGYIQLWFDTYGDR
Text for MAT LyLu cells: The MatLyLu (Dunning R3327 rat) model, a rat prostate tumor line, was used specifically to screen 9 specific analogs prior to entering them into control for dosimetry and tumor-bearing animals for determining tumor/background ratios.
In order to expedite the screening process and minimize the number of tumor bearing animals utilized in multiple time point tissue distribution studies, new radioiodinated homologs were imaged by gamma camera scintigraphy in the rat Dunning R3337 (MAT LyLu strain) prostate cancer model. […] Gamma camera images were obtained at multiple time points including 24 and 48 hours post injection.
The new PLE analogs were synthesized and radiolabeled with ^125I for initial image analysis in Copenhagen rats bearing Dunning R3327 prostate tumors.

In the case of `COC(COCCCCCCCCCCCCCCCCCCc1ccc(I)cc1)COP(=O)([O-])OCC[N+](C)(C)C` (racemic) [NM-410, 1-O-[18-(p-Iodophenyl)octadecyl]-2-O-methyl-rac-glycero-3-phosphocholine], the “tumor uptake and liver/abdominal radioactivity by gamma camera imaging” value with MAT LyLu cells is “high hepatic uptake, significant abdominal accumulation and retention or poor tumor uptake and retention; also recorded: high radioactivity levels in the liver and abdomen with little to no uptake of the agent into tumors”; in the data set with MAT LyLu cells (listed as 10), “retarded tumor uptake significantly”.

On to `[3H]C(CCCCCC)C([3H])CCCCCCCC(=O)O[C@H](COC(=O)CCCCCCCCCCCCCCC)COP(=O)([O-])OCC[N+](C)(C)C` (stereo partly drawn) [DPPC, 1-palmitoyl-2-[3H]-palmitoyl-L-3-phosphatidylcholine], for which, on Phospholipase C (PLC), the “hydrolysis by PLC” value was “underwent significant hydrolysis”.

In the case of `CCCCCCCCCCCCCCCCCCOCC(COP(=O)([O-])OCC[N+](C)(C)C)OC` (stereo not drawn) [ET-18-OCH3], in the data set on serum proteins, the “ether lipid bound to HDL” value is “about 6%” and the “ether lipid bound to albumin” value is 71%. Further, the “LD50 (oral)” value in [1] is 200 mg/kg. The maximum tolerated dose in data set [2] (intravenous) is on record as 50 mg/kg. The adverse effects reported result in [2] (up to 4 hours post-injection) is “pulmonary edema impaired hepatic function and hemolysis”.

For the compound `O=C([O-])CC(O)(CC(=O)[O-])C(=O)[O-].[Ga+3]` [Gallium citrate, reference compound], the “uptake and retention in granulomas” value in data set [3] is reported as “did indeed concentrate significantly in the granulomatous lesions”.

As usually defined, the LD50 is the dose expected to kill half of the subjects tested. With `CCCCCCCCCCCCCCCCOP(=O)([O-])OCC[N+](C)(C)C` [Miltefosine, hexadecyl phosphocholine], the maximum tolerated dose in data set [4] (over a 4-week period) is recorded as 39 nmol/kg. In data set [4], the LD50 was 606 nmol/kg.

Take `COC(COCCCCCCCCCCCCc1cccc([125I])c1)COP(=O)([O-])OCC[N+](C)(C)C` (stereo not drawn) [NM-294]: the tumor localization entry in data set [5] is “selectively localized in tumors over time”.

Broadly, the half-life is the time needed for the level to fall by half in the phase considered. With `C[N+](C)(C)CCOP(=O)([O-])OCCCCCCCCCCCCc1cccc(I)c1` [NM-324, 12-(3-iodophenyl)-dodecylphosphocholine], the “calculated dose for clinical use” value in [6] is on record as 1 mCi. Moreover, in [7], the half-life was 2.43 h. The tumor-to-blood ratio in the data set on rat mammary tumor (96 hours) is listed as 8.6. For the same compound, the “time of maximum tumor-to-normal tissue ratios” value with rat mammary tumor (rat, in vivo) was 96 h. Also, in data set [3], the “uptake and retention in granulomas” value is “no uptake and retention”. Further, the “liver radioactivity in patients” value in the data set with lung cancer is on record as “high liver radioactivity”; in the data set on lung cancer (listed as NM324) it was “unacceptable accumulation in liver tissue”. Besides, in the data set with lung cancer (images 6 h post injection, lung cancer patient), the lung tumor uptake result is reported as “intense lung tumor uptake”. Further, the “tumor uptake in cancer patients” value with lung cancer is given as “excellent tumor uptake”; in the data set with lung cancer (listed as 131I-NM-324), “Uptake is seen in the left lingular lung cancer (T) with increasing tumor-to-background ratios over time”. Further, in [5], the tumor localization entry was “selectively localized in tumors over time”.

As for `C[N+](C)(C)CCOP(=O)([O-])OCCCCCCCCCCCCc1ccc(I)cc1` [NM-346], the “tumor uptake and liver/abdominal radioactivity by gamma camera imaging” value with MAT LyLu cells is given as “readily visualized”.

For `C[N+](C)(C)CCOP(=O)([O-])OCCCCCCCc1ccc(I)cc1` [NM-396], in [8] (24 hours), the “radioactivity in all of the organs surveyed” value is reported as less than 0.10 % ID/g and the “radioactivity in the thyroid” value was 213 % ID/g. In addition, the “localization in tumor tissue” value in data set [8] (all time points examined) is reported as “did not localize in tumor tissue at any of the time points examined”.

With `C[N+](C)(C)CCOP(=O)([O-])OCCCCCCCCCCCCCCCc1ccc(I)cc1` [NM-397], the “increase in tumor uptake versus C12 analog 4” value in data set [8] (24 h) stood at 2 fold. Further, in data set [8] (48 hours after administration), the “radioactivity in the duodenum (maximum)” value was 1.38±0.24 % ID/g and the “radioactivity in the tumor (peak)” value is 1.65±0.23 % of ID/g. In [8] (120 hours), the blood levels was 0.07±0.00 % of ID/g. For the same compound, the “time of peak tumor radioactivity” value in data set [8] (after administration) amounted to 48 h. For the same compound, the “tumor uptake and liver/abdominal radioactivity by gamma camera imaging” value in the data set on MAT LyLu cells is “readily visualized”.

`C[N+](C)(C)CCOP(=O)([O-])OCCCOCCCCCCCCCCCCCCCCCCc1ccc(I)cc1` [NM-412, 1-O-[18-(p-Iodophenyl)octadecyl]-1,3-propanediol-3-phosphocholine]: the “tumor uptake and liver/abdominal radioactivity by gamma camera imaging” value in the data set with MAT LyLu cells is “high levels of liver and abdominal radioactivity; also recorded: tumor uptake accompanied by high liver and abdominal radioactivity levels”; in the data set with MAT LyLu cells (listed as 8) it was “fairly high levels of liver and abdominal radioactivity”.

Consider `C[N+](C)(C)CCOP(=O)([O-])OCCCCCCCCCCCCCCCCCCc1ccc([124I])cc1` [^124I-NM404], for which, in the data set with CNS-1 glioma brain tumor, the “tracer uptake in brain tumor and surrounding brain” value is “intense uptake of the tracer in the brain tumor accompanied by little or no uptake in surrounding intact brain tissue”. In data set [9], the bladder activity result was “lack of bladder activity at any time point; also recorded: No bladder activity was evident at any time point”. In addition, in data set [6] (124I label), the “dose level based on projected dosimetry to the adrenals and bladder wall” value is 2 mCi.

Take `C[N+](C)(C)CCOP(=O)([O-])OCCCCCCCCCCCCCCCCCCc1ccc([131I])cc1` [^131I-NM404]: the “time for liver to return to background levels” value in data set [10] (5 patients) was not above 11 days. Also, the “dose level safe to administer” value in [10] (advanced non-small cell lung cancer subjects) stood at 0.0003 mg/kg. For the same compound, in data set [10] (first-in-human pharmacokinetic studies), the safety entry is on record as “safe”. Moreover, the starting maximum dose result in data set [6] was “around 1.9 mCi”. In addition, in [6] (131I label), the “5 Rad limiting dose to the adrenals and bladder wall” value is 2 mCi. In addition, in data set [11], the “crossing of the blood brain barrier” value is recorded as “doesn't cross the intact blood brain barrier”. Besides, the “tumor uptake and retention” value in data set [12] was “tumor uptake and prolonged retention in the primary lung tumors”.
